ChEMBL document CHEMBL1201862, “PubChem BioAssay data set” (2004)
Calls of active or inactive are those of the source.

Experiments:
[1] = P. falciparum Dd2 growth inhibitors, dose response, SYBR Green, dry powder samples, set 9 (AID 1159568); format: functional, cell-based
[2] = P. falciparum 3D7-ScDHODH growth inhibitors, dose response, SYBR Green, dry powder samples (AID 1159570); format: functional, cell-based;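 also: parasite growth measured after 72 hours of compound exposure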
[3] = P. falciparum ATP4 D1247Y mutant growth inhibitors, dose response, NITD609-resistant line, SYBR Green, dry powder (AID 1159571); format: functional, cell-based;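 also: parasites synchronized at ring stage by sorbitol before testing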
[4] = P. falciparum Dd2 growth inhibitors, dose response, SYBR Green, dry powder samples (AID 1159566); format: functional, cell-based;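 also: potency for growth inhibition with lower SYBR green DNA signal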
[5] = P. falciparum Dd2 growth inhibitors, dose response, SYBR Green, cherry-picked samples (AID 1159567); format: functional, cell-based
[6] = biological target: T1, Oxysterols receptor LXR-beta (Homo sapiens, UniProt P55055); format: functional, cell-based;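 also: agonist activity at LXR measured by a cell-based luminescence readout across a dose range, run as a counterscreen for daf-12 agonists; HEK293 cells with Gal4-LXR fusion and GAL4-driven luciferase reporter; potency for activation of Gal4-LXR reporter so compounds are agonists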
T1 sequence (P55055 whole entry): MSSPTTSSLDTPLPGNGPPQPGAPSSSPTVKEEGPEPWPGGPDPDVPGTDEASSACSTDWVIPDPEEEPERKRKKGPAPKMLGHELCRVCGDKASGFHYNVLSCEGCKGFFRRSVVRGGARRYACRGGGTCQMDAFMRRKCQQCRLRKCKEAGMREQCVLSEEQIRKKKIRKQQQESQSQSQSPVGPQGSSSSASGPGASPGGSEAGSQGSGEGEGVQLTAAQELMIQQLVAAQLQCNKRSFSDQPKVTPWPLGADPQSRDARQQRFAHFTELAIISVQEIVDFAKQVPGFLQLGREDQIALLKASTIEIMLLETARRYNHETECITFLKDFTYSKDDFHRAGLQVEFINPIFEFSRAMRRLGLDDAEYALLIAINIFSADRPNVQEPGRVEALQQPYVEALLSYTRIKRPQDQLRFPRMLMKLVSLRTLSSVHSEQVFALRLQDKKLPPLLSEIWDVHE

[7] = THP-1 cell cytotoxicity, dose response, cytotoxicity control for Vif-APOBEC3G degradation inhibitor project, THP-1 cells (AID 1117359); format: functional; conditions: Human immunodeficiency virus 1, THP-1
Fatty acid synthase [8] = biological target: T2, Fatty acid synthase (Homo sapiens, UniProt P49327); assay: FAS thioesterase domain inhibitors, dose response, biochemical, endpoint fluorescence intensity, uHTS hits (AID 624327); format: functional;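 also: fluorescence from hydrolysis of an O-methyl fluorescein acyl ester substrate by the enzyme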
Fatty acid synthase [9] = biological target: T2, Fatty acid synthase; assay: FAS thioesterase domain inhibitors, dose response, biochemical, kinetic fluorescence intensity (AID 624326); format: functional;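 also: rate of fluorescence rise from hydrolysis of a fluorogenic O-methyl fluorescein ester substrate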
Protein skinhead-1 = biological target: T3, Protein skinhead-1 (Caenorhabditis elegans, UniProt P34707); format: functional
T3 sequence (P34707 whole entry): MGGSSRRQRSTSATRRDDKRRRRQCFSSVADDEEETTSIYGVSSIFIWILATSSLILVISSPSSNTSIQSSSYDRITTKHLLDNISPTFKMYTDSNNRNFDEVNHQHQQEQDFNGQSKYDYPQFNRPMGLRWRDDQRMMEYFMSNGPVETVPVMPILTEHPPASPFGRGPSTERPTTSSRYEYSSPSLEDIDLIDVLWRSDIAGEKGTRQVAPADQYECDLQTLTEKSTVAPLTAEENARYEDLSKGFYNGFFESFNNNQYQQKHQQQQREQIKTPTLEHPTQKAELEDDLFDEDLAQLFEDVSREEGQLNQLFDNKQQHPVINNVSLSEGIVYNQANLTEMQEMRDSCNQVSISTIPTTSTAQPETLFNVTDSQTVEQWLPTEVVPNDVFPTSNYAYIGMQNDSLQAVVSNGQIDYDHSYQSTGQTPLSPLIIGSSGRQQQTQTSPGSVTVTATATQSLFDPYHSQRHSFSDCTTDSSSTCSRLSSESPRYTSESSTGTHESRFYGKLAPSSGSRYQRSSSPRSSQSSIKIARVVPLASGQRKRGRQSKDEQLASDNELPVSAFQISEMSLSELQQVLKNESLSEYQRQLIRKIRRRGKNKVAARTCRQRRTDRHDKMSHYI

[10] = biological target: T4, Corticotropin-releasing factor receptor 2/Corticotropin-releasing factor-binding protein (Homo sapiens, UniProt P24387+Q13324); assay: activators of CRF receptor 2 with binding protein – uHTS hits, confirmation (AID 602473); format: functional; conditions: read-out: EC50_Mean
T4 sequence (Q13324 whole entry): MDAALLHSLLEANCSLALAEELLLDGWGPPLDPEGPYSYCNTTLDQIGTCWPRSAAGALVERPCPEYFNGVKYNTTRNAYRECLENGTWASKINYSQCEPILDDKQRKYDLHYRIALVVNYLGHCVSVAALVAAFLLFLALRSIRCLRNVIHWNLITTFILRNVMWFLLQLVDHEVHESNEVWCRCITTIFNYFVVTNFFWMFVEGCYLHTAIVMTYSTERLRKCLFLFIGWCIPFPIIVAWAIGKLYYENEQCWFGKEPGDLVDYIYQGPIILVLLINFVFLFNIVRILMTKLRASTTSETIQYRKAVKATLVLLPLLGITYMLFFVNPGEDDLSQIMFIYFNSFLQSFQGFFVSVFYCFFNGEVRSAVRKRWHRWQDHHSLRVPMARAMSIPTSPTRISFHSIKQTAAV
T4 sequence (P24387 whole entry): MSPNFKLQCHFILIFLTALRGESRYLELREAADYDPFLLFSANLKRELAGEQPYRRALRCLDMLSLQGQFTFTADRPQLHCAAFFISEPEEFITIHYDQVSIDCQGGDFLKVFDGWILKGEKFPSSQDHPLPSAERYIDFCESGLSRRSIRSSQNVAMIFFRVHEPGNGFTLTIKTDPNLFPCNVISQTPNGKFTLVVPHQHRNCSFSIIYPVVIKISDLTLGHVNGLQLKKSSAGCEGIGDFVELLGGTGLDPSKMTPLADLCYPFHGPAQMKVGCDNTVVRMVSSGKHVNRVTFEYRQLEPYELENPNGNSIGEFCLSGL

[11] = biological target: T4, Corticotropin-releasing factor receptor 2/Corticotropin-releasing factor-binding protein; assay: Dose Response confirmation of uHTS hits for small molecule antagonists of the CRF-binding protein and CRF-R2 receptor complex.; format: functional; conditions: read-out: IC50_Mean
[12] = growth suppression of PTEN-null colon cells, dose response, cell-based, HCT116 PTEN knockout (AID 1047); format: functional;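 also: HCT116 colon tumor cells with PTEN knocked out; cells exposed to compound for 60 hours before readout; potency for loss of cell viability measured by luminescence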
[13] = NIH-3T3 fibroblast cytotoxicity, dose response, cytotoxicity control, cell-based, fluorescence, Alamar Blue, secondary assay (AID 2327); format: functional;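 also: NIH-3T3 mouse fibroblasts cultured with fluconazole at 8 µg/mL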
[14] = C. albicans growth with fluconazole, confirmation, fluorescence, retest (AID 2467); format: functional, cell-based
[15] = growth suppression of beta-catenin-knockout colon cells, dose response, cell-based, HCT116, human colon tumor (AID 1045); format: functional;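 also: HCT116 colon tumor cells with beta catenin knocked out; cells exposed to compound for 60 hours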
[16] = HepG2 cell cytotoxicity, dose response, cytotoxicity control, ATP luminescence, cherry-pick, activator set 2 (AID 1053143); format: functional, cell-based

T2 sequence (P49327 whole entry, the tested form may be a part): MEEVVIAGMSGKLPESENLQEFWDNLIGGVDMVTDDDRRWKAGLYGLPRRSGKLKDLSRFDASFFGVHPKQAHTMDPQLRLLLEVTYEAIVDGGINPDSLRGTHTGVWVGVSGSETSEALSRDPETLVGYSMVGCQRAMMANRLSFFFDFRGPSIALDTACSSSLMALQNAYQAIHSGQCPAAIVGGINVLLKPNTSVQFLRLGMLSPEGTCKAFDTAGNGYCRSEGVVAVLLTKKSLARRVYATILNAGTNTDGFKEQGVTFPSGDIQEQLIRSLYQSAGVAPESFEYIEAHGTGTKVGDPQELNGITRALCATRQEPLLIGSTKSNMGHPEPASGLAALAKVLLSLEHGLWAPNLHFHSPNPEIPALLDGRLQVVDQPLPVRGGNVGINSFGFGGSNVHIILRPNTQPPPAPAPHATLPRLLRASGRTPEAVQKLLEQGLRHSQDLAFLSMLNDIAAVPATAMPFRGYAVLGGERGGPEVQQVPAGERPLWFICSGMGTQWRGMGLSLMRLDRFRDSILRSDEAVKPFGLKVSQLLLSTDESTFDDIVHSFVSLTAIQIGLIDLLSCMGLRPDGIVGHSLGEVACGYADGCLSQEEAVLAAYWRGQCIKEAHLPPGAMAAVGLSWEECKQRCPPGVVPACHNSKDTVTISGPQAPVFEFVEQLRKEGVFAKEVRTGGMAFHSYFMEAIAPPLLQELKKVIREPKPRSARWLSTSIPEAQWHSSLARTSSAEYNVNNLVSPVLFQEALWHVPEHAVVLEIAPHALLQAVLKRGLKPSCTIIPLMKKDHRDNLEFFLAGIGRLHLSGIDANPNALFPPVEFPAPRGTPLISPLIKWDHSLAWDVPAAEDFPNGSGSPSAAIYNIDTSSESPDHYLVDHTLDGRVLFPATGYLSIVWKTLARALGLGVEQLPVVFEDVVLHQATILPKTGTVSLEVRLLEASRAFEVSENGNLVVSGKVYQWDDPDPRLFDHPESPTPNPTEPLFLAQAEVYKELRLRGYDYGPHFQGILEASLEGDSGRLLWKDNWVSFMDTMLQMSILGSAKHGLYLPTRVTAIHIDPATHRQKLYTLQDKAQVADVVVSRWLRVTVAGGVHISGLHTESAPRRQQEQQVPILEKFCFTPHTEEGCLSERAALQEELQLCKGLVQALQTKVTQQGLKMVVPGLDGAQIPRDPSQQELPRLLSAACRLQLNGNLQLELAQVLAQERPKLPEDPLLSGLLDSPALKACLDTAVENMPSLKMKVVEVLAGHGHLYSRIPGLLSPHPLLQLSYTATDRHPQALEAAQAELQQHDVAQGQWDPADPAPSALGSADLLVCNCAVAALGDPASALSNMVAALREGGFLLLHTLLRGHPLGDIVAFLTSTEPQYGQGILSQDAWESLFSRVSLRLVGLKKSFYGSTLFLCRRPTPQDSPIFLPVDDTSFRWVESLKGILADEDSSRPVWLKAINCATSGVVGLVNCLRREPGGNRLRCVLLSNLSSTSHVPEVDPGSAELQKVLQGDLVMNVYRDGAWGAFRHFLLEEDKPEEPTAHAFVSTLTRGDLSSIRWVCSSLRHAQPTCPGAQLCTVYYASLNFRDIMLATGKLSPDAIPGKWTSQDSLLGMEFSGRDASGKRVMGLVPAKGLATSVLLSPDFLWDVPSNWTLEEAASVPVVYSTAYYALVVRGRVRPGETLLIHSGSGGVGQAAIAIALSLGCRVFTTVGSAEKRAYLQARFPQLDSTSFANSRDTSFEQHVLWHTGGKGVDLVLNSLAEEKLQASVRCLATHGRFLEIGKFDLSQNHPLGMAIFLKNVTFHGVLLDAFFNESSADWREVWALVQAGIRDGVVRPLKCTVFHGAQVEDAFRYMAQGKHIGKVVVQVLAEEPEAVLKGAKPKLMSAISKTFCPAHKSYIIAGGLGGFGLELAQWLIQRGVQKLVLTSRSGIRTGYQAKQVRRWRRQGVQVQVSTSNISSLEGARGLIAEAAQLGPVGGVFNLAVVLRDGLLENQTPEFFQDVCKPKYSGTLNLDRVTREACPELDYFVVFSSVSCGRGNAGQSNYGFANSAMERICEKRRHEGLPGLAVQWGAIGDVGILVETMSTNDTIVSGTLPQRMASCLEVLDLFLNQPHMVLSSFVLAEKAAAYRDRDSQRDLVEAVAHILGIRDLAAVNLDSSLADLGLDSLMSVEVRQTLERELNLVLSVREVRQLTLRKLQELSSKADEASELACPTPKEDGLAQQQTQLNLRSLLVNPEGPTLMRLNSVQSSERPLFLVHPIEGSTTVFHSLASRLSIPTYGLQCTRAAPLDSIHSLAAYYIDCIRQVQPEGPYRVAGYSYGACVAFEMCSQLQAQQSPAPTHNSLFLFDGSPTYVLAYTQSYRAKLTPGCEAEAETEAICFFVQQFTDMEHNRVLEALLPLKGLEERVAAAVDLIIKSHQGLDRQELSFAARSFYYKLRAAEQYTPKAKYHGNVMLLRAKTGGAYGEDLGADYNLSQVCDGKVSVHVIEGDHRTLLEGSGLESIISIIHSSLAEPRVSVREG

C[C@@H]1CN([C@@H](C)CO)C(=O)c2cccc(NC(=O)C3CC3)c2O[C@@H]1CN(C)C(=O)Nc1ccc(C(F)(F)F)cc1
AC50 [1]: 0.181 µM (active) | AC50 [2]: 0.312 µM (active) | AC50 [3]: 0.322 µM (active) | AC50 [4]: 0.275 µM (active) | AC50 [5]: 0.642 µM (active)

N#Cc1cccc(-c2ccc3c(c2)[C@H]2[C@H](CCN2S(=O)(=O)c2ccc(F)cc2)[C@@H](CO)N3)c1
AC50 [1]: 8.37 µM (active)

O=C(NC1CCC1)c1ccc(C#CC2CC2)cn1
EC50 [6]: > 67.5 µM (inactive)

CN=c1ccccc(-c2ccc3cc4c(cc3n2)OCO4)c1O
CC50 [7]: > 40 µM (active)

Cc1ccc(C(=O)N/C(=C\c2cn(S(=O)(=O)N(C)C)c3ccccc23)C(=O)NCCN2CCOCC2)cc1
IC50 (Fatty acid synthase [8]): 12.7 µM (active) | IC50 (Fatty acid synthase [9]): 16.5 µM (active)

O=C(CSc1nc(-c2ccco2)cc(C(F)(F)F)n1)NC1CCCCCCC1
IC50 (Protein skinhead-1): > 100 µM (inactive)

COc1ccc(Oc2cnn(-c3ccccc3)c(=O)c2Br)cc1
EC50 [6]: > 67.5 µM (inactive)

CN(C)CCNC(=O)C(=O)c1c(-c2ccccc2)cc2ccccn12
EC50 [10]: > 53 µM (inactive) | CC50 [7]: > 40 µM (active) | IC50 [11]: > 47.1 µM (inactive)

S=C(Nc1ccccc1)Nc1nc2ccccc2n1CCOc1ccc(Cl)cc1
EC50 [12]: 17.1 µM (active) | EC50 [13]: 11.1 µM (active) | IC50 (Protein skinhead-1): > 100 µM (inactive) | EC50 [14]: 2.58 µM (active) | EC50 [15]: 16 µM (active)

Cc1ccc([N+](=O)[O-])cc1NC(=O)c1ccc(C(C)(C)C)cc1
IC50 (Fatty acid synthase [8]): 5.57 µM (active) | IC50 (Fatty acid synthase [9]): 4.59 µM (active)

Cc1ccc(Nc2ncnc(-n3cccc3)n2)cc1Cl
AC50 [16]: > 52 µM (inactive)
